Holding throughout (assay type): cell-based
Experiment [1] relates to Escherichia coli. Nature of the experiment: Minimum biofilm inhibitory concentration (MBIC), crystal violet staining, comparison with fosfomycin. To be noted: E. coli; 24 h. The protocol:
(§1) The capacity of the product Comp. […] The formation of the biofilm was viewed by means of Crystal Violet staining, wherein the stain penetrates the bacterial cells and turns them purple. To determine the MBIC, 48-well plates were utilised. 200 µL of the sample, prepared at a concentration of 2x with respect to the maximum concentration being tested, was dispensed into the first well and 100 µL of medium was added to the subsequent wells, performing serial dilutions of 1:2 up to the 8th well. Finally, 100 µL of each microorganism at a concentration of 10^5 were inoculated into each well. The biofilm inhibition activity of the fosfomycin, at a lower concentration with respect to the MIC value measured in Example 10, was also assessed and the sterility and growth tests were performed for each microorganism. The multiwell plates were incubated at 37°C for 24 hours and then the supernatant present was removed, together with the planktonic bacteria not attached to the plate. The biofilm was then washed 3 times with PBS and subsequently the cells were fixed by means of incubation at 60°C for 2 hours, before being stained with crystal violet. The crystal violet staining was performed to assess the effect of the product and the fosfomycin on the formation of the biofilm. 50 µL crystal violet dissolved in deionised water was dispensed into each well and, after 5 minutes of incubation at room temperature, each well was finally washed three times with PBS 1x. The biofilm inhibition activity was viewed by microscopic observation under stereomicroscope and optical microscope using the phase-contrast method. The final concentrations tested for each sample are stated in Table 3. Table 3 [table]

Experiment [2] has as its system Klebsiella pneumoniae. Described as above. To be noted: K. pneumoniae; 24 h. The protocol: as §1
In experiment [3] the test system is Enterococcus faecium. The description is as above. To be noted: E. faecium; 24 h. The protocol:
as §1

The test system of experiment [4] is Escherichia coli (DSM 1576). Kind of experiment: MIC determination by broth dilution (CLSI M07), 96-well plates. To be noted: Escherichia coli, DSM1576; E. coli, 37°C, 24 h. The method, then: (§2) The antimicrobial activity of the product Comp. 1 in Example 10 was tested in vitro according to method CLSI M07 "Methods for dilution Antimicrobial susceptibility tests for bacteria that grow aerobically".
(§3) For this purpose, the MIC (Minimum Inhibitory Concentration) values were determined with respect to the main microorganisms responsible for urinary tract infections.
(§4) More specifically, the microorganisms utilised were: Escherichia coli (DSM 1576), Klebsiella pneumoniae (DSM 30104), and Enterococcus faecalis(DSM 20477).
(§5) For each experiment conducted, the bacteria stated above were revived from a cell bank stored at -80°C. […]
(§6) The assay to determine the MIC was conducted in 96-well plates testing 12 concentrations (serial dilutions) of each sample. 200 µL of the sample, prepared at a concentration of 2x with respect to the maximum concentration being tested, was dispensed into the first well and 100 µL medium was added to the subsequent wells, performing serial dilutions of 1:2 up to 12th well. Finally, 100 µL of each microorganism at a concentration of 10^5 was inoculated into each well.
(§7) Two antibiotics were used as controls: Fosfomycin (Sigma) and Ceftriaxone (Sigma) at different final concentrations based on the microorganism utilised; both the antibiotics were dissolved in sterile water and then filtered with 0.22 µm filters.
(§8) Growth was tested and the sterility of the medium and of the product was tested. The antimicrobial activity of the D-mannose was also assessed individually. The plates thus prepared were incubated at 37°C for 24h and the results were then observed (Figure 1). The final concentrations tested for each product analysed are stated in Table 2.
On the technique in general: Broth dilution looks for growth in wells or tubes with falling amounts of substance.

In experiment [5] the test system is Klebsiella pneumoniae (DSM 30104). The experiment is described as above. To be noted: Klebsiella pneumoniae, DSM30104; Klebsiella, 37°C, 24 h. The method, then: as §2, §3, §4, §5, §6, §7, §8
The test system of experiment [6] is Enterococcus faecium. The experiment is described as above. Particulars: Enterococcus faecium; E. faecium, 37°C, 24 h.
Experiment [7] deals with Escherichia coli. Kind of experiment: Minimum biofilm eradication concentration (MBEC), 72 h preformed biofilm, crystal violet staining. Particulars: E.coli; fosfomycin 30000-234.38 µg/mL tested. The protocol:
(§9) To determine the minimum biofilm eradication concentration, 48-well plates were utilised. The microorganisms were incubated for 72 h at 37°C to allow the formation of the biofilm. Once formed, the biofilm was treated with fosfomycin and with the product Comp. 1 in Example 10. In particular, after the formation of the biofilm, the supernatant was suctioned and replaced with solutions containing gradually decreasing concentrations of product or of fosfomycin. The plates thus prepared were incubated for 24 h at 37°C. At the end of the incubation time, the supernatant present in each well was removed, together with the bacteria that was not attached to the plate and, after washing, the plates were incubated at 60°C for 2 hours to fix the cells before the staining with crystal violet. The crystal violet staining was performed to assess the effect of the product and the fosfomycin on the removal of the biofilm. 50 µL crystal violet dissolved in deionised water was dispensed into each well. After 5 minutes of incubation at room temperature, each well was washed three times with PBS 1x. The biofilm eradication activity was viewed under microscopic observation (Figures 7-9). The final concentrations tested for each product are stated in Table 4 Table 4 [table]

The subject of experiment [8] is Klebsiella pneumoniae. The experiment is described as above. Particulars: K. pneumoniae; 72 h biofilm, 24 h treatment. The protocol:
as §9

The subject of experiment [9] is Enterococcus faecium. The description is as above. To be noted: E. faecium; fosfomycin 3000-23.44 µg/mL tested. The protocol: as §9

Converted amounts (≈) assume the structure as drawn. Where only a bound is given, the exact number is not on record here.

For `C[C@@H]1O[C@@H]1P(=O)(O)O` [fosfomycin, Fosfomycin], the “concentrations with a biofilm inhibition effect” value in the experiment with Escherichia coli [1] and in the experiment on Klebsiella pneumoniae [2] was ≥ 78 µg/mL in each case. Besides, the “concentration necessary for biofilm inhibition effect” value in the experiment with Enterococcus faecium [3] was “at least 321 µg/mL”. Further, the MIC – broadly, the least concentration at which growth counts as inhibited – in experiment [4] is 19.5 µg/mL (≈ 141 µM); in experiment [5], 5000 µg/mL (≈ 36200 µM); in the experiment with Enterococcus faecium [6] it was 78.1 µg/mL (≈ 566 µM). Further, the biofilm eradication effect result in the experiment with Escherichia coli [7] and in the experiment with Enterococcus faecium [9] was “did not seem to have a biofilm eradication effect” each time. For the same compound, in the experiment with Klebsiella pneumoniae [8], the “concentrations with biofilm eradication activity” value is “greater than 468 µg/mL”.
